How the values were obtained:
[1] = biological target: T1, human plasma protein factor Xa (Homo sapiens, UniProt P00742); test: Factor Xa IC50 determination, cleavage of paranitroanilide substrate S-2765; type: biochemical; details: factor Xa 1 nM, S2765 100 μM, Tris buffered saline pH 7.4, 5% DMSO
T1 construct: The human plasma protein factor Xa was purchased from Haematologic Technologies; purchased Haematologic Technologies (Essex Junction, Vt.); host or cells: human plasma
Description: This example illustrates methods for evaluating the compounds of the invention, along with results obtained for such assays. The in vitro and in vivo human Factor Xa activities of the inventive compounds can be determined by various procedures known in the art, such as a test for their ability to inhibit the activity of human plasma Factor Xa. […] The IC50 value is the concentration (in nM) of the compound required to provide 50% inhibition of human Factor Xa proteolytic activity.
An in vitro assay for detecting and measuring inhibition activity against Factor Xa is as follows:
The substrate S-2765 (Z-D-Arg-Gly-Arg-pNA•HCl) was obtained from Diapharma (West Chester, Ohio).
The human plasma protein factor Xa was purchased from Haematologic Technologies (Essex Junction, Vt.).
All assays, which are performed in 96-well microtiter plates, measure proteolytic activity of the enzyme (factor Xa) by following cleavage of a paranitroanilide peptide substrate. The assay buffer used for proteolytic assays was Tris buffered saline (20 mM Tris, 150 mM NaCl, 5 mM CaCl2, 0.1% Bovine serum albumin (BSA), 5% Dimethly Sulfoxide (DMSO) pH 7.4). In a 96-well microtiter plate, inhibitor was serially diluted to give a range of final concentrations from 0.01 nM to 10 μM. Duplicate sets of wells were assayed and control wells without inhibitor were included. Enzyme was added to each well, (factor Xa concentration=1 nM), the plate was shaken for 5 seconds and then incubated for 5 minutes at room temperature. S2765 was added (100 μM final) and the plate was shaken for 5 seconds (final volume in each well was 200 μl). The degree of substrate hydrolysis was measured at 405 nm on a Thermomax plate reader (Molecular Devices, Sunnyvale, Calif.) for 2 minutes. The initial velocities of substrate cleavage (mOD/min), for each range of inhibitor concentrations, were fitted to a four parameter equation using Softmax data analysis software. The parameter C, derived from the resulting curve-fit, corresponded to the concentration for half maximal inhibition (IC50).

[2] = Pharmacokinetics of Compound 10 in rat (IV and PO), plasma and urine by LC/MS/MS; type: in vivo, male Sprague-Dawley rats; parameters: AUC/D (dose-normalized AUC(0-inf)): unit not given here; details: mean ± SD
Description: Compound 10 was used in the rat investigation. An intravenous (IV) and oral (PO) dose of Compound 10 (1.0 and 10 mg/kg, respectively) was prepared. The IV dose was solubilized in 50% PEG300 to yield a final concentration of 1.0 mg/mL with a final pH of 5.13. The PO dose was suspended in 0.5% methylcellulose at a concentration of 2.0 mg/mL with a final pH of 2.70.
A total of six male Sprague-Dawley rats (n=3/dosing group) from Charles River Laboratories (Hollister, Calif.), three male beagle dogs from Marshall BioResources (North Rose, N.Y.) and three male rhesus monkeys were utilized. All surgical procedures in rat (femoral and jugular vein catheterizations) were performed 8 days prior to utilization in the study and rats were acclimated in-house 5 days prior to utilization. Dogs were acclimated in-house at least seven days prior to utilization and were returned to the colony at the completion of the study. Monkey studies were conducted by an off-site contract laboratory.
All animals were fasted from the afternoon prior to study initiation to two hours post-dose (approximately 18 hours). Water was provided ad libitum. All animal rooms were on a 12 hour light-dark cycles (6 A.M. to 6 P.M.). On the morning of experimentation, animals were weighed. Rat femoral and jugular (IV only) vein blood lines were exteriorized and attached to access ports. […]
(§1) All animals were dosed based on individual weights with a PO gavage volume of 5.0 mL/kg and an IV bolus dose volume of 1.0 mL/kg. […] At collection times, urine volume and water consumption was recorded. […]
(§2) Plasma and urine samples were analyzed for Compound 10 concentration using a liquid chromatography tandem mass spectrometry (LC/MS/MS). […] The peak areas of the m/z 411→250 product ion (Compound 10) were measured against those of the m/z 470→342 product ion (N-(2-(5-chloropyridin-2-ylcarbaomoyl)-4-methoxyphenyl)-4-(N,N-dimethylcarbamimidoyl)-2-fluorobenzamide) in positive ion mode. […]
(§3) Sample Compound 10 concentrations below the lower limit of quantitation (LLQ) were reported as <0.500 ng/mL. […]

[3] = Pharmacokinetics of Compound 10 in dog (IV and PO), plasma by LC/MS/MS; type: in vivo, male beagle dogs; parameters: AUC/D (dose-normalized AUC(0-inf)): unit not given here; details: mean ± SD
Description: (§4) For the dog and monkey study, Compound 10 was also used. An IV and PO dose of Compound 10 (1.0 and 5.0 mg/kg, respectively) was prepared. The IV dose was formulated similarly to that used in the rat study (50% PEG300 in water). The PO dose was suspended in 0.5% methylcellulose at a concentration of 1.0 mg/mL with a final pH of approximately 3.50.
(§5) A total of six male Sprague-Dawley rats (n=3/dosing group) from Charles River Laboratories (Hollister, Calif.), three male beagle dogs from Marshall BioResources (North Rose, N.Y.) and three male rhesus monkeys were utilized. […]
as §1, §2, §3

[4] = Pharmacokinetics of Compound 10 in monkey (IV and PO), plasma by LC/MS/MS; type: in vivo, male rhesus monkeys; parameters: AUC/D (dose-normalized AUC(0-inf)): unit not given here; details: mean ± SD
Description: as §4, §5, §1, §2, §3

T1 sequence (P00742 235-488 limits assumed): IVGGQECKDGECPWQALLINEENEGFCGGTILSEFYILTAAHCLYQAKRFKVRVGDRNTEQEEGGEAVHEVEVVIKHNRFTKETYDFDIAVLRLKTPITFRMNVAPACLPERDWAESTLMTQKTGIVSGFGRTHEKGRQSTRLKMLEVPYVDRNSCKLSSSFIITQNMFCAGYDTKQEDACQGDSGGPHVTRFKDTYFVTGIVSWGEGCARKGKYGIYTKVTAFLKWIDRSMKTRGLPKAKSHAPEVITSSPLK
T1 sequence (P00742 41-179 partner limits assumed): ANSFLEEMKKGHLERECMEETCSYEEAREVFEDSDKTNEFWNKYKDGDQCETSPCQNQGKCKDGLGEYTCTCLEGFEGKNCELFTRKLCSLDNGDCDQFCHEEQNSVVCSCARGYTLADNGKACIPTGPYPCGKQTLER

Row | IC50 [1] [nM] | Dose excreted unchanged in urine ([2]; intravenous, 1 mg/kg, urine to 24 hours post-dose) [%] | bioavailability ([2]; male, Sprague-Dawley, plasma, oral 10 mg/kg vs intravenous 1 mg/kg, read-out: F (absolute bioavailability)) [%] | AUC/D (dose-normalized AUC(0-inf)) ([2]; oral, 10 mg/kg, n=3) | bioavailability ([3]; male, beagle, plasma, oral 5 mg/kg vs intravenous 1 mg/kg, read-out: F (absolute bioavailability)) [%] | AUC/D (dose-normalized AUC(0-inf)) ([3]; oral, 5 mg/kg, n=3) | bioavailability ([4]; male, rhesus, rhesus monkey, plasma, oral 5 mg/kg vs intravenous 1 mg/kg, read-out: F (absolute bioavailability)) [%] | AUC/D (dose-normalized AUC(0-inf)) ([4]; oral, 5 mg/kg, n=3) | Structure (SMILES)
1 | ≤ 100 | – | – | – | – | – | – | – | O=C(NCc1cn(-c2ccc(N3CCSCC3=O)cc2)cn1)c1ccc(Cl)s1 [Compound 15, 5-Chloro-N-((1-(4-(3-oxothiomorpholino)phenyl)-1H-imidazol-4-yl)methyl)thiophene-2-carboxamide]
2 | ≤ 100 | 0.248 ± 0.019 | 127 ± 23.1 | 6859 ± 1249 | 68.5 ± 15.5 | 1095 ± 295 | 71.6 ± 18.1 | 8430 ± 3449 | O=C(NCc1cn(-c2ccc(-n3ccccc3=O)cc2)cn1)c1ccc(Cl)s1 [Compound 10, 5-Chloro-N-((1-(4-(2-oxopyridin-1(2H)-yl)phenyl)-1H-imidazol-4-yl)methyl)thiophene-2-carboxamide]
3 | ≤ 100 | – | – | – | – | – | – | – | Cc1ccc(=O)n(-c2ccc(-n3cnc(CNC(=O)c4ccc(Cl)s4)c3)cc2)c1 [Compound 45, 5-chloro-N-((1-(4-(5-methyl-2-oxopyridin-1(2H)-yl)phenyl)-1H-imidazol-4-yl)methyl)thiophene-2-carboxamide]
